{"source": "patent US6632793B1", "about": "“Immunological activity for a peptide of the limulus anti-LPS factor” (Centro de Ingenieria Genetica y Biotecnologia, priority 1997, dated 2003)", "format_in_all_cases": "cell-based", "key": {"human mononuclear cells": {"system": "human mononuclear cells", "assay": "Antiviral effect on Hep-2 cells of supernatant from human mononuclear cells stimulated with peptide", "settings": "for Antiviral effect of supernatant, 1: supernatant on Hep-2, experiment 1; for Antiviral effect of supernatant, 2: supernatant on Hep-2, experiment 2; for Antiviral effect of supernatant, 3: supernatant on Hep-2, experiment 3; for Antiviral effect of supernatant, Mean: supernatant on Hep-2, mean of 3", "method": "(§1) Then the cells were washed with saline solution and infected with […] of Mengo virus, provide by Institute of Molecular Biology, University of Zurich, which is multiplied in the cell line L929 murine fibroblasts. 18 h later degree of cell destruction was measured by fixation and staining, generally with crystal violet, for reading of cytophatic effect was used a photometer Ultramicroanalytical System (SUMA). A computer program in Pascal UCSD language for the microcomputer system was developed for all calculations and corrections (Ferrero et al., 1994, Biotecnologia Aplicada. Vol. 1:). In this case serial dilution's of human γ-IFN 70 000 IU/ml (MRI, Freeze-dried Reference Human Recombinant Gamma Interferon) was used as standard in order to define unit of antiviral activity. For this reason the antiviral protection shown by the peptide is related to International Units of γ-IFN (Ul/ml). As a negative control were used different peptides from proteins that bind endotoxin. LPS at 10 ng/ml was used as a positively control because is well known that it induced the production of IFNs (Manthey et al., 1994, J. Immunology. Vol. 153: 2653-2663). One unit of antiviral activity is define as the quantity of IFN able to produce an 50% inhibition of the viral replication.\nVenous blood was obtained from healthy volunteers and Ficoll-Hypaque centrifugation, fractionated mononuclear cells. The mononuclear cells were washed and resuspended in endotoxin-free RPMI-1640 culture medium supplemented with 10% fetal calf serum. Concentration of 2×10^6 cells/ml were aliquoted into 24-well microtiter plates (Nunc, Denmark). The cells were then incubated with 14 and 28 μg/ml of different peptides: Limulus anti-LPS factor31-52 (LALF), Lipopolysaccharide Binding Protein86-99 (LBP) and 18 kDa Cationic Antimicrobial Protein108-128 (CAP-18), at 37° C. for 18 hours in 5% CO2. The cells were centrifuged at 3000 rpm for 5 min and then serial dilutions of supematants were assays for antiviral activity using the procedures described in the example 2."}, "[1]": {"system": "Mengo virus on cell line Hep-2", "assay": "Antiviral effect: inhibition of the cytopathic effect of Mengo virus on cell line Hep-2", "settings": "24 h pre-incubation; for Antiviral effect, 1: experiment 1; for Antiviral effect, 2: experiment 2; for Antiviral effect, 3: experiment 3; for Antiviral effect, Mean: mean of 3", "method": "as §1"}, "[2]": {"system": "TNFα from human mononuclear cells", "assay": "TNF-α synthesis by human mononuclear cells (ELISA of supernatant)", "settings": "18 h, mean of three donors", "method": "Venous blood was obtained from healthy volunteers and Ficoll-Hypaque centrifugation, fractionated mononuclear cells. The mononuclear cells were washed and resuspended in endotoxic-free RPMI 1640 medium supplemented with 10% fetal calf serum. 30×10^6 cells were aliquoted into plates p-60 (Nunc, Denmark). The cells were incubated with 14 or 28 μg/ml LALF at 37° C. for 18 hours in 5% CO2 and then centrifuged at 3000 rpm during 5 min. The synthesis of TNFα in the supernatant was determined by specific enzyme-linked immunoadsorbent assay (ELISA), kindly provided by Dr. W. Buurman (University Hospital Maastrich, The Netherlands)."}, "[3]": {"settings": "mononuclear cells stimulated with 14 μg/ml for 18 h"}, "[4]": {"settings": "mononuclear cells stimulated with 28 μg/ml for 18 h"}}}
{"substance": "CAP-18 [reference compound]", "values": [{"measurement": "Antiviral effect of supernatant, 1", "setting": "human mononuclear cells; [3]", "value": 7.8, "unit": "IU/ml γ-IFN"}, {"measurement": "Antiviral effect of supernatant, 2", "setting": "human mononuclear cells; [3]", "value": 8, "unit": "IU/ml γ-IFN"}, {"measurement": "Antiviral effect of supernatant, 3", "setting": "human mononuclear cells; [3]", "value": 11, "unit": "IU/ml γ-IFN"}, {"measurement": "Antiviral effect of supernatant, Mean", "setting": "human mononuclear cells; [3]", "value": 8.93, "unit": "IU/ml γ-IFN"}, {"measurement": "Antiviral effect of supernatant, 1", "setting": "human mononuclear cells; [4]", "value": 8.2, "unit": "IU/ml γ-IFN"}, {"measurement": "Antiviral effect of supernatant, 2", "setting": "human mononuclear cells; [4]", "value": 9, "unit": "IU/ml γ-IFN"}, {"measurement": "Antiviral effect of supernatant, 3", "setting": "human mononuclear cells; [4]", "value": 9.6, "unit": "IU/ml γ-IFN"}, {"measurement": "Antiviral effect of supernatant, Mean", "setting": "human mononuclear cells; [4]", "value": 8.93, "unit": "IU/ml γ-IFN"}, {"measurement": "Antiviral effect, 1", "setting": "[1]; Hep-2, 14 μg/ml", "value": 9, "unit": "IU/ml γ-IFN"}, {"measurement": "Antiviral effect, 2", "setting": "[1]; Hep-2, 14 μg/ml", "value": 8.7, "unit": "IU/ml γ-IFN"}, {"measurement": "Antiviral effect, 3", "setting": "[1]; Hep-2, 14 μg/ml", "value": 9.2, "unit": "IU/ml γ-IFN"}, {"measurement": "Antiviral effect, Mean", "setting": "[1]; Hep-2, 14 μg/ml", "value": 8.9, "unit": "IU/ml γ-IFN"}, {"measurement": "Antiviral effect, 1", "setting": "[1]; Hep-2, 28 μg/ml", "value": 12.2, "unit": "IU/ml γ-IFN"}, {"measurement": "Antiviral effect, 2", "setting": "[1]; Hep-2, 28 μg/ml", "value": 9, "unit": "IU/ml γ-IFN"}, {"measurement": "Antiviral effect, 3", "setting": "[1]; Hep-2, 28 μg/ml", "value": 9, "unit": "IU/ml γ-IFN"}, {"measurement": "Antiviral effect, Mean", "setting": "[1]; Hep-2, 28 μg/ml", "value": 10.9, "unit": "IU/ml γ-IFN"}, {"measurement": "TNF - α", "setting": "[2]; 14 μg/ml", "value": 0.76, "unit": "ng/mL"}, {"measurement": "TNF - α", "setting": "[2]; 28 μg/ml", "value": 0.75, "unit": "ng/mL"}]}
